Values after ≈ are worked out from the molar mass of the structure shown. Like-named read-outs stand apart in the source and are kept apart here.
Legend:
[1] = tested on: L. major IR‐173 promastigotes; experiment: Antipromastigote assay (resazurin); assay type: cell-based; conditions: Leishmania major, read-out: Antipromastigote activity, IC50 ±SD, IR‐173
Experimental: (§1) Antipromastigote assay: The antipromastigote activity of synthesized compounds was evaluated as described previously by […] al.[47] using L. donovani 9515 (MHOM/IN/95/9515) and L. major IR-173 (MHOM/IR/-173). […] Al dri c h) […] The prom astigotes were […] 25 °C. […] Therm ofisher Scientific) in the presence of: […] com pounds for IC50 determination. […] blank. […] Em etine served as the standard cytotoxic drug. […] References […]

[2] = tested on: L. donovani 9515 promastigotes; experiment: Antipromastigote assay (resazurin); assay type: cell-based, Leishmania donovani; conditions: for IC50: Leishmania donovani, read-out: Antipromastigote activity, IC50 ±SD, 9515
Experimental: as §1

[3] = tested on: L. major IR‐173 amastigotes; experiment: Anti‐amastigote assay, intramacrophage (THP‐1), resazurin; assay type: cell-based, Leishmania major; conditions: for IC50: read-out: Anti‐amastigote activity, IC50 ±SD, IR‐173; for Selectivity index SI1: L. major IR‐173: IC50 HEK‐293/IC50 amastigote; for Selectivity index SI3: L. major IR‐173: IC50 THP‐1/IC50 amastigote; for Specificity index SpI1: L. major IR‐173: IC50 promastigote/IC50 amastigote
Experimental: (§2) For the anti‐amastigote assay, differentiated plates were carefully washed with PBS, followed by the addition of 200 μL of stationary phase promastigotes in RPMI 1640 medium with 2 % FBS. An MOI of 30 : 1 was used for all three Leishmania strains. […] The treated plates were incubated for 72 hours. After incubation, the plates were gently washed three times with PBS to remove any remaining extracellular parasites. The wells were then treated with 20 μL of 0.05 % sodium dodecyl sulphate in PBS for 30 seconds to lyse the host macrophages. Lysis was terminated by adding 180 μL promastigote growth medium with 10 % FBS. […] Absorbance measurements, calculations and IC50 determinations were performed as described for the antipromastigote assay (Supporting Information).

[4] = tested on: L. donovani 9515 amastigotes; experiment: as above; assay type: cell-based, Leishmania donovani; conditions: for IC50: Leishmania donovani, THP-1, L. donovani 9515 intramacrophage amastigotes, read-out: Anti‐amastigote activity, IC50 ±SD, 9515; for fold selective antiparasitic action against L. donovani amastigote in the presence of mammalian cells: HEK‐293 and THP‐1; for fold higher potency than the NF antibiotics: L. donovani amastigote; for fold more specificity for donovani amastigote than AMB: comparison of SpI2 values vs. AMB 0.4; for Selectivity index SI2: L. donovani 9515: IC50 HEK‐293/IC50 amastigote; for Specificity index SpI2: L. donovani 9515: IC50 promastigote/IC50 amastigote; for Selectivity index SI4: L. donovani 9515: IC50 THP‐1/IC50 amastigote
Experimental: as §2

[5] = Macrophage toxicity, resazurin assay; assay type: cell-based; conditions: human, differentiated THP‐1 macrophages, read-out: Cytotoxicity, THP‐1, IC50±SD
Experimental: Macrophage toxicity: Toxicity of the compounds on the differentiated host THP‐1 cells were also evaluated. As mentioned, duplicate plates of differentiated THP‐1 cells were prepared during the anti‐amastigote assay. These plates were incubated for 72 hours to differentiate, instead of replacing the growth medium with parasite‐containing medium after 48 hours. […] Blanks were growth medium without cells. The treated plates were incubated for 72 hours, followed by the addition of 50 μL of resazurin solution (0.01 % in PBS) to each well and 24‐hour incubation.

[6] = Basal cytotoxicity, resazurin assay; conditions: human
[7] = tested on: HEK‐293 cells; experiment: Basal cytotoxicity, resazurin assay; conditions: read-out: Cytotoxicity, HEK‐293, IC50±SD; HEK‐293 cells, resazurin
[8] = in vitro; conditions: human, Cytotoxicity, HEK‐293, IC50±SD
[9] = cited from earlier work
[10] = during therapy ref 19; cited from earlier work
[11] = Leishmania major, THP-1, L. major IR‐173 intramacrophage amastigotes
[12] = differentiated THP-1 cells (macrophages)
[13] = HEK-293 cells (ATCC CRL 1573), Cytotoxicity, HEK‐293, IC50±SD, HEK‐293 cells, resazurin
[14] = L. major IR‐173 intramacrophage amastigotes

Row | SMILES | IC50 [1] [µM] | IC50 [2] [µM] | IC50 [3, 11] [µM] | IC50 [4] [µM] | IC50 at 72 h [5, 12] [µM] | IC50 [6, 13] [µM] | Selectivity index SI4 [4] | also measured
1 | C[C@@H]1[C@H](O)[C@@H](C)/C=C/C=C/C=C/C=C/C=C/C=C/C=C/[C@H](O[C@@H]2O[C@H](C)[C@@H](O)[C@H](N)[C@@H]2O)C[C@@H]2O[C@](O)(C[C@@H](O)C[C@@H](O)[C@H](O)CC[C@@H](O)C[C@@H](O)CC(=O)O[C@H]1C)C[C@H](O)[C@H]2C(=O)O [AMB, amphotericin B, reference compound] | 0.03 ± 0.01 | 0.02 | 0.03 | 0.05 | – | – | – | –
2 | C#CCN1C(=O)CN(/N=C/c2ccc([N+](=O)[O-])o2)C1=O [Compound 1] | 0.51 ± 0.05 | – | – | – | 99.94 ± 0.09 | – | – | fold selective antiparasitic action against L. donovani amastigote in the presence of mammalian cells [4]: more than 100 fold; fold higher potency than the NF antibiotics [4]: up to 30 fold; fold more specificity for donovani amastigote than AMB [4]: 20 fold
3 | CCCCCn1cc(CN2C(=O)CN(/N=C/c3ccc([N+](=O)[O-])o3)C2=O)nn1 [Compound 2] | 0.09 | – | – | – | > 100 | > 100 | – | –
4 | CCCCCCn1cc(CN2C(=O)CN(/N=C/c3ccc([N+](=O)[O-])o3)C2=O)nn1 [Compound 3] | 0.48 ± 0.02 | – | – | – | – | 17.9 ± 1.3 | – | –
5 | CCCCCCCn1cc(CN2C(=O)CN(/N=C/c3ccc([N+](=O)[O-])o3)C2=O)nn1 [Compound 4] | 6.85 ± 0.44 | 0.18 ± 0.05 | – | – | > 100 | > 100 | – | fold selective antiparasitic action against L. donovani amastigote in the presence of mammalian cells [4]: more than 100 fold; fold higher potency than the NF antibiotics [4]: up to 30 fold
6 | CCCCCCCCn1cc(CN2C(=O)CN(/N=C/c3ccc([N+](=O)[O-])o3)C2=O)nn1 [Compound 5] | 0.27 ± 0.02 | – | – | – | – | 31.9 ± 3.55 | – | –
7 | CCCCCCCCCn1cc(CN2C(=O)CN(/N=C/c3ccc([N+](=O)[O-])o3)C2=O)nn1 [Compound 6] | 6.51 ± 1.13 | 4.68 ± 0.32 | – | – | > 100 | 43.8 ± 4.13 | – | Selectivity index SI2 [4]: 12; Specificity index SpI2 [4]: 1.3; fold more specificity for donovani amastigote than AMB [4]: 3 fold
8 | CCCCCCCCCCn1cc(CN2C(=O)CN(/N=C/c3ccc([N+](=O)[O-])o3)C2=O)nn1 [Compound 7] | 0.34 ± 0.02 | – | < 10 | 6.17 ± 0.47 | > 100 | 67.1 ± 5.22 | > 16 | Antipromastigote activity, IC50 ±SD, 9515 [2]: inactive; Selectivity index SI1 [3]: 10; Selectivity index SI3 [3]: > 15; IC50 [3, 14]: 6.72 µM; Selectivity index SI2 [4]: 11
9 | CCCCCCCCCCCn1cc(CN2C(=O)CN(/N=C/c3ccc([N+](=O)[O-])o3)C2=O)nn1 [Compound 8] | 1.24 ± 0.13 | 1.6 ± 0.08 | – | 4.49 | > 100 | 20.3 ± 3.15 | > 22 | Selectivity index SI2 [4]: 5; Specificity index SpI2 [4]: 0.4
10 | CCCCCCCCCCCCn1cc(CN2C(=O)CN(/N=C/c3ccc([N+](=O)[O-])o3)C2=O)nn1 [Compound 9] | 0.38 ± 0.01 | – | – | – | > 100 | – | – | –
11 | O=C1CN(/N=C/c2ccc([N+](=O)[O-])o2)C(=O)N1Cc1cn(CCc2ccc([N+](=O)[O-])cc2)nn1 [Compound 10] | 0.17 | – | – | – | – | – | – | IC50 at 72 h [5]: > 100 µM; IC50 [6]: 43.7 ± 3.37 µM
12 | O=C1CN(/N=C/c2ccc([N+](=O)[O-])o2)C(=O)N1Cc1cn(Cc2ccccc2)nn1 [Compound 11] | 0.68 ± 0.13 | – | – | – | – | 21 ± 3.25 | – | –
13 | Cc1ccc(Cn2cc(CN3C(=O)CN(/N=C/c4ccc([N+](=O)[O-])o4)C3=O)nn2)cc1 [Compound 12] | 0.34 ± 0.11 | – | – | – | – | 41.8 ± 1.21 | – | –
14 | CC(C)c1ccc(Cn2cc(CN3C(=O)CN(/N=C/c4ccc([N+](=O)[O-])o4)C3=O)nn2)cc1 [Compound 13] | 0.57 ± 0.01 | – | – | 9.13 | > 100 | < 10 | > 11 | Antipromastigote activity, IC50 ±SD, 9515 [2]: inactive; Selectivity index SI2 [4]: 1; IC50 [7]: 7.27 ± 0.93 µM
15 | CC(C)(C)c1ccc(Cn2cc(CN3C(=O)CN(/N=C/c4ccc([N+](=O)[O-])o4)C3=O)nn2)cc1 [Compound 14] | 0.45 ± 0.1 | – | – | 1.16 ± 0.02 | > 100 | 23.2 ± 2.77 | > 86 | Antipromastigote activity, IC50 ±SD, 9515 [2]: inactive; Selectivity index SI2 [4]: 20
16 | O=C1CN(/N=C/c2ccc([N+](=O)[O-])o2)C(=O)N1Cc1cn(Cc2ccc(Br)cc2)nn1 [Compound 15] | 0.5 ± 0.03 | 7.59 ± 0.56 | 5.14 ± 0.67 | – | > 100 | 32.7 ± 4.19 | – | Selectivity index SI1 [3]: 6; Selectivity index SI3 [3]: > 19; Specificity index SpI1 [3]: 0.1
17 | O=C1CN(/N=C/c2ccc([N+](=O)[O-])o2)C(=O)N1Cc1cn(Cc2ccc(Br)cc2F)nn1 [Compound 16] | 0.19 ± 0.01 | – | < 10 | 9.21 | 55.7 ± 1.17 | 14.4 ± 0.84 | 6 | Selectivity index SI3 [3]: 9; Specificity index SpI1 [3]: 0.5; IC50 [3, 14]: 6.42 ± 0.38 µM; Selectivity index SI2 [4]: 2
18 | O=C1CN(/N=C/c2ccc([N+](=O)[O-])o2)C(=O)N1Cc1cn(Cc2ccc(F)cc2)nn1 [Compound 17] | 1.05 ± 0.07 | – | – | – | – | 48.4 ± 1.88 | – | –
19 | O=C1CN(/N=C/c2ccc([N+](=O)[O-])o2)C(=O)N1Cc1cn(Cc2ccc([N+](=O)[O-])cc2)nn1 [Compound 18] | 0.38 | – | – | – | – | – | – | IC50 [6]: 60.2 ± 2.29 µM
20 | O=C1CN(/N=C/c2ccc([N+](=O)[O-])o2)C(=O)N1Cc1cn(Cc2cccc(Br)c2)nn1 [Compound 19] | 0.48 | 1.75 ± 0.11 | – | – | – | 12.6 ± 0.46 | – | –
21 | O=C1CN(/N=C/c2ccc([N+](=O)[O-])o2)C(=O)N1Cc1cn(Cc2cccc(C(F)(F)F)c2)nn1 [Compound 20] | 0.13 ± 0.02 | – | – | – | – | 15.8 ± 3.69 | – | –
22 | CC[C@H]1CN2CCc3cc(OC)c(OC)cc3[C@@H]2C[C@@H]1C[C@H]1NCCc2cc(OC)c(OC)cc21 [EM, Emetine, reference compound] | – | – | – | – | – | 0.01 | – | –
23 | O=C1OCCN1/N=C/c1ccc([N+](=O)[O-])o1 [FZD, furazolidone, reference compound] | 0.37 ± 0.02 | 0.57 ± 0.05 | 2.8 ± 0.5 | 4.11 ± 0.78 | – | – | – | –
24 | O=C1CN(/N=C/c2ccc([N+](=O)[O-])o2)C(=O)N1 [NFT, nitrofurantoin, reference compound] | > 10 | > 10 | > 10 | 9.92 ± 0.11 | > 100 | – | > 10 | IC50 [8]: > 100 µM; solubility in DMF ([9]; DMF): 50 mg/mL (≈ 210 mM); solubility in DMSO ([9]; DMSO): 25 mg/mL (≈ 105 mM); solubility in water ([9]; water ref 26): 0.19 mg/mL (≈ 0.798 mM); excreted unchanged [10]: 33%
25 | O=C(N/N=C/c1ccc([N+](=O)[O-])o1)c1ccc(O)cc1 [NFX, nifuroxazide, reference compound] | > 10 | 4.48 ± 0.1 | > 10 | 7.29 ± 0.39 | > 100 | – | > 14 | Specificity index SpI2 [4]: 0.6; IC50 [8]: > 100 µM
26 | NC(=O)N/N=C/c1ccc([N+](=O)[O-])o1 [NFZ, nitrofurazone, reference compound] | 1.22 ± 0.03 | 1.82 ± 0.03 | 5.75 ± 0.75 | 4.94 ± 0.61 | > 100 | > 100 | > 20 | Selectivity index SI3 [3]: > 17; Specificity index SpI1 [3]: 0.2; Specificity index SpI2 [4]: 0.4

From publication PMC9322565 (Chemmedchem, 2022)
